Data from the NIST ThermoML archive (doi:10.1016/j.fluid.2013.07.012).
± gives the expanded uncertainty stated by the source.

Assay: xn = mol fraction of the nth substance listed
Conditions: 101 kPa, Liquid, Direct current cell with electrodes

CCN(CC)CCO.Cl [2-(diethylamino)ethanol hydrochloride] + OCCO
electrical conductivity [S/m]
Conditions | x1 = 0.2 | x1 = 0.25 | x1 = 0.34
298.15 K | 0.5661 ± 0.0054 | 0.543 ± 0.0057 | 0.512 ± 0.006
303.15 K | 0.6994 ± 0.0052 | 0.6878 ± 0.0058 | 0.6627 ± 0.0057
308.15 K | 0.8245 ± 0.0054 | 0.8305 ± 0.0053 | 0.794 ± 0.005
313.15 K | 0.9699 ± 0.0067 | 0.9486 ± 0.0061 | 0.9283 ± 0.0061
318.15 K | 1.158 ± 0.0074 | 1.134 ± 0.0073 | 1.095 ± 0.0065
323.15 K | 1.341 ± 0.007 | 1.315 ± 0.0069 | 1.254 ± 0.0068
328.15 K | 1.509 ± 0.0075 | 1.477 ± 0.0071 | 1.433 ± 0.007
333.15 K | 1.714 ± 0.0074 | 1.666 ± 0.0073 | 1.616 ± 0.0069
338.15 K | 1.875 ± 0.0063 | 1.839 ± 0.0065 | 1.778 ± 0.0065
343.15 K | 2.029 ± 0.007 | 1.99 ± 0.01 | 1.942 ± 0.0072
348.15 K | 2.226 ± 0.0076 | 2.192 ± 0.0076 | 2.135 ± 0.0074
353.15 K | 2.405 ± 0.0072 | 2.367 ± 0.0071 | 2.31 ± 0.007
